From patent US20240016807A1, “COMBINATION THERAPY FOR THE TREATMENT OF A LIVER DISEASE” (INVENTIVA, priority 2020, published 2024)

Assays:
Type in all cases: in vivo, C57BL6/J mice
[1] = system: hepatic gene expression of IL-1b, MCP-1, Col1 alpha1 and TGF-beta; assay: Hepatic gene expression by qPCR (inflammation and fibrosis genes) in HFCC/CDX diet mouse model; details: liver, vs vehicle, 2 weeks treatment
Description: (§1) It has been reported (Duparc T et al., Am J Physiol Gasterointest Liver Physiol, 2019, Vol. 317, n° 4, pages G508-G517) that mice fed with a high fat/high cholesterol/high cholic acid diet with 2% 2-hydroxypropyl beta-cyclodextrin in drinking water for 3 weeks rapidly develops liver complications such as steatosis, inflammation and fibrosis with concomitant increase in plasma ALT/AST levels. The benefit of a combination therapy comprising lanifibranor and firsocostat was assessed in this model. C57BL6/J mice were fed for 3 weeks with a 60% high fat/1.25% cholesterol/0.5% cholic acid diet with 2% 2-hydroxypropyl beta-cyclodextrin in drinking water (HFCC/CDX diet). After 1 week of diet, blood was collected (˜150 μL/ethylenediaminetetraacetic acid (EDTA)) in non-fasting conditions and plasma ALT and AST levels were measured. Mice were then randomized into 4 homogenous treatment groups (n=10 mice per group) according to their 1) ALT levels, 2) AST levels and 3) body weight. The four groups received then their treatment for the remaining 2 weeks on top of the HFCC/CDX diet as follows: • Group 1: vehicle 1+vehicle 2; • Group 2: lanifibranor+vehicle 2; • Group 3: vehicle 1+firsocostat; • Group 4: lanifibranor+firsocostat. All treatments were given QD per os. Vehicle 1 stands for lanifibranor's vehicle (i.e. methyl cellulose/poloxamer), vehicle 2 stands for firsocostat's vehicle (i.e. Tween®80/methylcellulose). Lanifibranor was given at 10 mg/kg for 2 weeks and firsocostat was given at 30 mg/kg for the first 6 days and then at 15 mg/kg for the last 8 days: due to the high loss of weight observed in the combination group, the dose of firsocostat was adapted to limit toxicity. At the end of the treatment period all the mice were weighted and 4-hour fasted prior to blood collection (maximal volume/EDTA). Plasma was isolated and stored at −80° C. Plasma leftover was used for evaluation of plasmatic triglycerides, cholesterols and free fatty acid. After blood collection, mice were sacrificed by cervical dislocation under isoflurane anaesthesia and exsanguinated with sterile saline. The liver was collected and weighted then liver samples were dissected for histology analysis (H&E, Sirius Red staining, % Sirius Red labelling and NAFLD Activity Score (NAS)), liver lipids assay, hepatic gene expression of IL-1b, MCP-1 for inflammation, Col1 alpha1 and TGF-beta for fibrosis were analysed by qPCR.

[2] = system: HFCC+CDX diet model (liver histology); assay: Liver histology (steatosis, inflammation, fibrosis scoring, % Sirius Red) in HFCC/CDX diet mouse model; details: for histological fibrosis score: compared to the vehicle group (score of 1); for histological steatosis score / histological inflammation score: 3 being the maximum; for histological steatosis score: all vehicle animals scored 3; for histological inflammation score: all vehicle mice scored 3; for surface of fibrosis (collagen deposition within the liver): vehicle 0.14%; for total scoring including steatosis, inflammation and fibrosis scoring: vehicle 6.9
Description: as §1

[3] = system: HFCC+CDX diet model (liver lipids); assay: Liver lipids assay in HFCC/CDX diet mouse model; details: 2 weeks treatment QD per os; lanifibranor 10 mg/kg, firsocostat 30 then 15 mg/kg
Description: as §1

[4] = Body weight follow-up in HFCC/CDX diet mouse model; details: for body weight: during treatment, lanifibranor 10 mg/kg QD per os, firsocostat 30 mg/kg QD per os in first week
Description: It has been reported (Duparc T et al., Am J Physiol Gasterointest Liver Physiol, 2019, Vol. 317, n° 4, pages G508-G517) that mice fed with a high fat/high cholesterol/high cholic acid diet with 2% 2-hydroxypropyl beta-cyclodextrin in drinking water for 3 weeks rapidly develops liver complications such as steatosis, inflammation and fibrosis with concomitant increase in plasma ALT/AST levels. The benefit of a combination therapy comprising lanifibranor and firsocostat was assessed in this model.
(§2) C57BL6/J mice were fed for 3 weeks with a 60% high fat/1.25% cholesterol/0.5% cholic acid diet with 2% 2-hydroxypropyl beta-cyclodextrin in drinking water (HFCC/CDX diet). After 1 week of diet, blood was collected (˜150 μL/ethylenediaminetetraacetic acid (EDTA)) in non-fasting conditions and plasma ALT and AST levels were measured. Mice were then randomized into 4 homogenous treatment groups (n=10 mice per group) according to their 1) ALT levels, 2) AST levels and 3) body weight. The four groups received then their treatment for the remaining 2 weeks on top of the HFCC/CDX diet as follows: • Group 1: vehicle 1+vehicle 2; • Group 2: lanifibranor+vehicle 2; • Group 3: vehicle 1+firsocostat; • Group 4: lanifibranor+firsocostat.
All treatments were given QD per os. Vehicle 1 stands for lanifibranor's vehicle (i.e. methyl cellulose/poloxamer), vehicle 2 stands for firsocostat's vehicle (i.e.
Tween®80/methylcellulose). Lanifibranor was given at 10 mg/kg for 2 weeks and firsocostat was given at 30 mg/kg for the first 6 days and then at 15 mg/kg for the last 8 days: due to the high loss of weight observed in the combination group, the dose of firsocostat was adapted to limit toxicity. At the end of the treatment period all the mice were weighted and 4-hour fasted prior to blood collection (maximal volume/EDTA). Plasma was isolated and stored at −80° C. Plasma leftover was used for evaluation of plasmatic triglycerides, cholesterols and free fatty acid. After blood collection, mice were sacrificed by cervical dislocation under isoflurane anaesthesia and exsanguinated with sterile saline.

[5] = system: epididymal white adipose tissue (EWAT); assay: Epididymal white adipose tissue weight in HFCC/CDX diet mouse model; details: 2 weeks treatment QD per os; lanifibranor 10 mg/kg, firsocostat 30 then 15 mg/kg
Description: as §2, with “It has been reported (Duparc T et al., Am J Physiol Gasterointest Liver Physiol, 2019, Vol. 317, n° 4, pages G508-G517) that mice fed with a high fat/high cholesterol/high cholic acid diet with 2% 2-hydroxypropyl beta-cyclodextrin in drinking water for 3 weeks rapidly develops liver complications such as steatosis, inflammation and fibrosis with concomitant increase in plasma ALT/AST levels. The benefit of a combination therapy comprising lanifibranor and firsocostat was assessed in this model. C57BL6/J” for “C57BL6/J”, “lanifibranor+firsocostat. All treatments were given QD per os. […]” for “lanifibranor+firsocostat.”

SMILES: COc1ccccc1[C@H](Cn1c(=O)n(C(C)(C)C(=O)O)c(=O)c2c(C)c(-c3ncco3)sc21)OC1CCOCC1 [firsocostat]
- hepatic IL-1beta expression [1]: decreased both IL-1beta and MCP-1 expressions but only the decrease in MCP-1 expression reached significance
- hepatic MCP-1 expression [1]: decreased both IL-1beta and MCP-1 expressions but only the decrease in MCP-1 expression reached significance
- hepatic TGF-beta1 expression [1]: statistically decreased
- hepatic collagen 1 alpha 1 expression [1]: statistically decreased
- histological fibrosis score [2]: no effect
- histological steatosis score [2]: score of 2 in 7 animals but had no effect in 2 animals
- histological inflammation score [2]: 1 animals had a score of 3, 7 animals had a score of 2 and 1 animal had a score of 1
- surface of fibrosis (collagen deposition within the liver) [2]: 0.10%
- total scoring including steatosis, inflammation and fibrosis scoring [2]: 5.1
- hepatic fatty acids levels, change vs vehicle [3]: −16%
- hepatic total cholesterol, change vs vehicle [3]: −9%
- hepatic triglycerides, change vs vehicle [3]: −14%
- body weight after firsocostat dose reduction ([4]; after firsocostat dose reduced from 30 mg/kg to 15 mg/kg): normalized their body weight
- body weight [4]: induced a body weight loss in the first week of treatment
- epididymal white adipose tissue (EWAT) weight [5]: neither lanifibranor alone, firsocostat alone nor the combination of lanifibranor and firsocostat had an effect

SMILES: O=C(O)CCCc1cc2cc(Cl)ccc2n1S(=O)(=O)c1ccc2ncsc2c1 [lanifibranor, 5-Chloro-1-[(6-benzothiazolyl)sulfonyl]-1H-indole-2-butanoic acid]
- hepatic IL-1beta expression [1]: statistically decreased
- hepatic MCP-1 expression [1]: statistically decreased
- hepatic TGF-beta1 expression [1]: statistically decreased
- hepatic collagen 1 alpha 1 expression [1]: statistically decreased
- histological fibrosis score [2]: no effect
- histological steatosis score [2]: score of 2 for 8 animals and of 1 for 2 animals
- histological inflammation score [2]: 2 animals had a score of 3, 6 animals had a score of 2 and 2 animals had a score of 1
- surface of fibrosis (collagen deposition within the liver) [2]: 0.08%
- total scoring including steatosis, inflammation and fibrosis scoring [2]: 4.7
- hepatic fatty acids levels, change vs vehicle [3]: no effect
- hepatic total cholesterol, change vs vehicle [3]: −18%
- hepatic triglycerides, change vs vehicle [3]: −7%
- body weight [4]: minor body weight loss that was not significant
- epididymal white adipose tissue (EWAT) weight [5]: neither lanifibranor alone, firsocostat alone nor the combination of lanifibranor and firsocostat had an effect
